Data: patent US6074626A (Molecular Radiation Management, Inc., priority 1999, dated 2000)
Where “and” joins values, the source holds several entries; their conditions need not be identical. Equal entries are not always repeated.

How the values were obtained:
hepatoma = settings: given systemically; cited from earlier work
viable hepatoma = experiment: Diagnostic quantitation of tumor uptake by ^195m cisplatinum gamma camera imaging after HAI; format: in vivo, patients
Procedure: (§1) The rationale for HAI cisplatinum was evaluated in a diagnostic quantitative study trial utilizing radioactive ^195m cisplatinum. The radiopharmaceutical was prepared using a ^194 Pt target and irradiation from neutron flux in a fission reactor (45,46). […] The study was approved by the institutional review board and radiation safety committee of Cooper Hospital University Medical Center for use of up to a 1.0 mCi dose of ^195m cisplatinum, delivered intra-arterially. Institutional Review Board approved informed consent documents were signed by all patients participating in this study.
Platinum-195m is a radionuclide with a physical half-life of 4.02 days. As it decays by isomeric transition it emits several photons imageable by scintillation camera. Six patients were imaged thirty minutes after administration of ^195m cisplatinum (252-1011 μCi) using a dual-head gamma camera system equipped with low-energy parallel-hole collimators. The camera was peaked at 76 keV with an energy window setting of 37%. […] Tumors and normal liver containing Pt-195m uptake were identified and appropriate regions of interest drawn. The method used for quantitation of the radioactivity utilized conjugate view images (180° opposed anterior and posterior planar images). Prior to patient studies a phantom study was performed under fixed geometry to determine a correction factor for patient attenuation and scatter and a system calibration factor. The phantom consisted of a simulated tumor containing 277.5 μCi of Pt-195m in an abdominal phantom filled with water to simulate patient attenuation and scatter. […] The activities determined from the conjugate view counting technique were divided by the administered activity and multiplied by 100 to obtain the percent tumor uptakes. Tumor-to-normal liver ratios were determined from the various regions of interest.
(§2) Because of a high response rate to intra-arterial cisplatinum compared to intravenous delivery a study was done to estimate whether there was a differential tumor uptake of cisplatinum. Patients were given similar tracer doses of ^195m cisplatinum, first intravenously then by HAI. It was estimated that the maximum dose for this diagnostic quantitative trial would be 1.0 mCi, which would yield an estimated absorbed dose no greater than 5 centigray to the kidneys and therefore not cause toxicity. […] FIG. 6 is an example of their gamma camera study done the same day following the intra-arterial injection of 1.0 mCi ^195 Pt cisplatinum. […] Table 4 summarizes the data for this diagnostic quantitative trial following HAI of ^195m cisplatinum. As shown, the mean tumor uptake was 48.4% (range 34.2-55.4%) of the given activity and the mean ratio of tumor-to-liver uptake was 2.1 (range 1.6-2.4).

tumor (hepatoma) = experiment: Scintigraphic scans of 195^m cisplatin given intravenously and intra-arterially to the same patient; format: in vivo
Text: When the drug was given intravenously,less than five percent deposited in the tumor. When the drug was given intra-arterially, 35 to 40 percent of the drug deposited in the tumor, as witnessed by scintigraphic scans.
as §2

[1] = Safety of ^195m cisplatinum given by HAI; format: in vivo; settings: six patients
Procedure: as §1
as §2, with “As shown, the mean tumor uptake was 48.4% (range 34.2-55.4%) of the given activity and the mean ratio of tumor-to-liver uptake was 2.1 (range 1.6-2.4).” left out

[2] = test system: non-resectable hepatocellular carcinoma; experiment: Remission and survival of hepatoma patients treated monthly with hepatic artery infusion (HAI) of cisplatinum at 50 mg/m^2; format: in vivo; settings: intra-arterial, 50 mg/m^2, 28 patients
hepatocellular carcinoma [3] = settings: intravenous, cited from earlier work
[4] = test system: non-resectable hepatocellular carcinoma; experiment: Remission and survival of hepatoma patients treated monthly with hepatic artery infusion (HAI) of cisplatinum at 50 mg/m^2; format: in vivo; design: median survival, increase over the six months reported from other regimens: unit not given here; settings: for survival: one patient
Text: Patient population: All patients were required to have histologic documentation of hepatocellular carcinoma. Pre-treatment evaluation included a complete medical history and physical examination, hepatitis virus status and complete blood cell counts, biochemical survey including lactate dehydrogenase, alkaline phosphatase, BUN, creatinine, bilirubin, PT/PTT and alpha fetoprotein (AFP) level; radiographic studies including CT scans of the chest, abdomen and pelvis with volumetric reconstruction of both tumor and normal liver volumes allowed determination of percentage of liver replacement by tumor. The presence of ascites was determined using both clinical examination and imaging results. Excluded were patients with a creatinine >1.5 and/or BUN >25. All patients gave written informed consent. Prior to referral to our facility 23 patients (34%) had multiple chemotherapeutic regimens. Of the 67 patients, 44 (65%) were treated with external beam radiation to the involved liver as a component of the prescribed treatment program. Assessment of liver function was done using the modified Childs-Pugh classification (41). The American Joint Committee on Cancer staging system was used to stage tumor extent in all patients (42). […]
Intrahepatic arterial chemotherapy: The infusion was performed either with a temporary percutaneous femoral or axillary artery catheter or implanted port or pump. On the day prior to treatment the patients were instructed to take 1 to 2 liters of fluid orally. On admission, 1 liter of 5% dextrose in normal saline with 20 meq potassium was given intravenously. Utilizing a femoral or axillary artery transcutaneous approach an arteriogram of the common hepatic artery was done. Next, cisplatinum 50 mg/m^2 was dissolved to a concentration of 1 mg per ml of sterile water. The solution was then infused intra-arterially at a rate of 1 mg/minute. The chemotherapy was always infused into the most distal artery feeding the main mass of the tumor. Appropriate antiemetic therapy, generally Odansetron 0.15 mg/kg IV and dexamethasone 20 mg IV was administered before the cisplatinum infusion and as needed after the infusion. On discharge home patients were given an oral antiemetic regimen of Lorazepam 1 mg, every six hours, or Odansetron 8 mg every twelve hours, as needed and Dexamethasone 4 mg every six hours for one day. Patients continued monthly HAI of cisplatinum until evidence of progressive disease or death. All patients were assessable for response.
Assessment of response: Routine clinical examinations and laboratory testing were performed at monthly intervals or as clinically indicated. The defined improvements on a minimum of two CT scans and/or AFP titers obtained at least two months apart were required to delineate response. Tumor volumes were quantified by computed tomography scan volumetric analysis of the liver as previously reported (20,43). Complete remission was the disappearance of all clinical evidence of tumor for a minimum of one month. Partial remission was a decrease of 50% or more in the volume of all measurable lesions measured on contrast-enhanced CT scan or a ≥50% reduction in AFP titer. Stable disease was a <50% decrease or <25% increase in tumor volume or AFP titer. Progressive disease was the increase of at least 25% in the tumor volume of all measurable lesions on CT scan or by AFP titer. Toxicity was assessed monthly during HAI therapy using RTOG criteria (44) with scores ≥3 considered to be major toxicities.
Statistical methods: The log-rank procedure was used to test for any statistical differences in survival distribution between patient populations (47). Survival curves were generated by the Kaplan Meier technique (48). Each survival curve was plotted as a step function of the Kaplan-Meier estimates.
Intra-arterial hepatic infusions were given to 67 patients with non-resectable hepatocellular carcinoma treated between July 1991 and September 1997. […]

hepatocellular carcinoma [5] = settings: subcutaneously; untreated controls 4 months; cited from earlier work
[6] = HAI, per patient (b206-b211 = patients 1-6), thirty minutes after administration
[7] = intra-arterial, tracer quantities
[8] = HAI after failing previous therapy, disease confined to liver, AFP (+)
[9] = HAI after failing previous therapy, disease confined to liver, AFP (-)

## O=c1[nH]cc(F)c(=O)[nH]1 [5-FU, 5-fluorouracil]
hepatoma
  effectiveness: inconsistently effective

## [NH2][195Pt]([NH2])([Cl])[Cl] [^195m cisplatinum]
Viable hepatoma; HAI
  concentration in viable hepatoma (imaging): hyperconcentration
Viable hepatoma; [6]
  Tumor uptake: 55.4% and 49.6% and 52.8% and 48.3% and 34.2% and 50.3%
  Tumor-to-liver uptake ratio: 1.6 and 2.3 and 2.4 and 2.1 and 2.0
Viable hepatoma; HAI, per patient (b206-b211 = patients 1-6), thirty minutes after administration, administered 252-1011 μCi
  Tumor activity: 140 μCi and 501 μCi and 528 μCi and 489 μCi and 343 μCi and 503 μCi
Viable hepatoma; HAI, six patients
  mean ratio of tumor-to-liver uptake: 2.1
  mean tumor uptake of the given activity: 48.4%
  range of ratio of tumor-to-liver uptake: 1.6-2.4
  range of tumor uptake of the given activity: 34.2-55.4%
Viable hepatoma; intra-arterial, tracer amounts
  exposure of the tumor vs intravenous route: selectively exposes the tumor to higher drug levels than can be achieved by the intravenous route
Viable hepatoma; [7]
  kinetics: first-pass kinetics
  selective tumor uptake: 34-55 % of administered dose
Tumor (hepatoma); intravenous
  drug deposited in the tumor: less than five
[1]
  adverse events: no adverse events occurred

## N.N.[Cl][Pt][Cl] [cisplatin, cisdiamminedichloroplatinum]
[2]
  remission: 50%
Tumor (hepatoma); intra-arterial
  binding on the hepatoma, persistence: apparently stays there for a persistent period of time
Hepatocellular carcinoma [3]
  response rate: less than five
Hepatocellular carcinoma [3]; single drug
  response rate (in words): relatively poor response rate
[4]; AFP positive patients, as compared with octreotide study
  median survival: 12 months
[4]; [8]
  alive at one year: 56%
  median survival: 17.3 months
[4]; [9]
  alive at one year: 75%
  median survival: 46.3 months
[4]; HAI after prior treatment failure, extra-hepatic metastases, AFP (+)/elevated
  median survival: 8.9 months
[4]; HAI after prior treatment failure, extra-hepatic metastases, AFP (-)/not elevated
  median survival: 11.1 months
[4]; HAI as primary therapy, disease confined to liver, AFP (+)
  median survival: 12.0 months
[4]; HAI as primary therapy, disease confined to liver, AFP (-)
  median survival: 17.5 months
[4]; HAI as primary therapy, extra-hepatic metastases, AFP (+)/elevated
  median survival: 7.1 months
[4]; HAI as primary therapy, extra-hepatic metastases, AFP (-)/not elevated, listed as HAI-CDDP
  survival: 21.0 months
[4]; HAI as primary therapy, extra-hepatic metastases, AFP (-)/not elevated, listed as cisplatinum
  survival: 21 months
[4]; HAI, 50 mg/m^2
  long term remission: long term remission can be obtained
[4]; HAI, AFP (+), all patients
  median survival: 10.3 months
  overall survival at one year: 45%
[4]; HAI, AFP (-), all patients
  overall survival at one year: 59%
[4]; HAI, AFP (-), all patients, listed as cisplatinum
  median survival: 21.8 months and 21 months
[4]; HAI, chronic Hepatitis B or C, regardless of AFP status
  median survival: 10.7 months
[4]; HAI, log rank
  significance of overall survival difference AFP (+) vs AFP (-): significantly different
[4]; HAI, present study group
  overall median survival: 10.3 months
[4]; arterial route
  response rate: ≥ 50%
[4]; intra-arterial, 67 patients
  response: 50%
[4]; intra-arterial, 95 patients combined
  remission: 50%
[4]; worst group of hepatomas (AFP+ positive), intra-arterial
  median survival, increase over the six months reported from other regimens: one

## CO[C@@]12[C@H](COC(N)=O)C3=C(C(=O)C(C)=C(N)C3=O)N1C[C@@H]1N[C@@H]12 [mitomycin]
hepatoma
  effectiveness: inconsistently effective

## C[C@@H](O)[C@@H]1NC(=O)[C@H](CCCCN)NC(=O)[C@@H](Cc2c[nH]c3ccccc23)NC(=O)[C@H](Cc2ccccc2)NC(=O)[C@@H](NC(=O)[C@H](N)Cc2ccccc2)CSSC[C@@H](C(=O)N[C@H](CO)[C@@H](C)O)NC1=O [octreotide]
Hepatocellular carcinoma [5]
  median survival: 13 months
